According to ChEMBL document CHEMBL1201862, “PubChem BioAssay data set” (2004):
Active and inactive are the calls of the source.

Columns and labels:
[1] = molecular target: T1, Sentrin-specific protease 7 (Homo sapiens, UniProt Q9BQF6); format: functional;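 further: Luminescence-based dose-response confirmation of ultra-high-throughput screening hits, measuring inhibition of SENP7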
T1 sequence (Q9BQF6 whole entry): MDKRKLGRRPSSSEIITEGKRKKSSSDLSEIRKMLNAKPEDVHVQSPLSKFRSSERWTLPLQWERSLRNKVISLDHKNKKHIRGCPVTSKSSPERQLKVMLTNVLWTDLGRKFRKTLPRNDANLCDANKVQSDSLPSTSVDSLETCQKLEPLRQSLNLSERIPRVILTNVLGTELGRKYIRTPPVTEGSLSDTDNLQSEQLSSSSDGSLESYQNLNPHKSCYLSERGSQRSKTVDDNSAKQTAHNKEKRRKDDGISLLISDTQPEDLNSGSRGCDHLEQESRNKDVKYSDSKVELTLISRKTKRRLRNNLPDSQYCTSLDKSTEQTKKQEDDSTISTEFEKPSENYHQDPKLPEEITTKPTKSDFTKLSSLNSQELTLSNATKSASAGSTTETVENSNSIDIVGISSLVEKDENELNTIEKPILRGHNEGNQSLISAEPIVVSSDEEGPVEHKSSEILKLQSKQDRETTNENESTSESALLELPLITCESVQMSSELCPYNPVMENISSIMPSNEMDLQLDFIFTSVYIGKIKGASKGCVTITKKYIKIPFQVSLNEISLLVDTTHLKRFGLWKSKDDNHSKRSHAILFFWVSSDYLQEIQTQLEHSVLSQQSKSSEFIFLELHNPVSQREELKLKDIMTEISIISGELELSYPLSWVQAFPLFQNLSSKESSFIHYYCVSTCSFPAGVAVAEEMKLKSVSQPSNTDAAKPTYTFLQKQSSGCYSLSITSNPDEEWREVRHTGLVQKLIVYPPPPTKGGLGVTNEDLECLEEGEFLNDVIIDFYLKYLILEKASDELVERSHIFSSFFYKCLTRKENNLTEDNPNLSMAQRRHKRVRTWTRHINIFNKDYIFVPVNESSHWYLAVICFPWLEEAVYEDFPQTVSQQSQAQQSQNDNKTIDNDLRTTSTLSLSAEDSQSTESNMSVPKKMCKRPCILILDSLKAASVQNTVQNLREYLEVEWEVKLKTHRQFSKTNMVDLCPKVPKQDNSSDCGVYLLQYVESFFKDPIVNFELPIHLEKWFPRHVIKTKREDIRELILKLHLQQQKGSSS

[2] = molecular target: T2, Sentrin-specific protease 6 (Homo sapiens, UniProt Q9GZR1); format: functional;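 further: Luminescence-based dose-response confirmatory assay of SENP6 inhibition, following up an ultra-high-throughput screen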
T2 sequence (Q9GZR1 whole entry): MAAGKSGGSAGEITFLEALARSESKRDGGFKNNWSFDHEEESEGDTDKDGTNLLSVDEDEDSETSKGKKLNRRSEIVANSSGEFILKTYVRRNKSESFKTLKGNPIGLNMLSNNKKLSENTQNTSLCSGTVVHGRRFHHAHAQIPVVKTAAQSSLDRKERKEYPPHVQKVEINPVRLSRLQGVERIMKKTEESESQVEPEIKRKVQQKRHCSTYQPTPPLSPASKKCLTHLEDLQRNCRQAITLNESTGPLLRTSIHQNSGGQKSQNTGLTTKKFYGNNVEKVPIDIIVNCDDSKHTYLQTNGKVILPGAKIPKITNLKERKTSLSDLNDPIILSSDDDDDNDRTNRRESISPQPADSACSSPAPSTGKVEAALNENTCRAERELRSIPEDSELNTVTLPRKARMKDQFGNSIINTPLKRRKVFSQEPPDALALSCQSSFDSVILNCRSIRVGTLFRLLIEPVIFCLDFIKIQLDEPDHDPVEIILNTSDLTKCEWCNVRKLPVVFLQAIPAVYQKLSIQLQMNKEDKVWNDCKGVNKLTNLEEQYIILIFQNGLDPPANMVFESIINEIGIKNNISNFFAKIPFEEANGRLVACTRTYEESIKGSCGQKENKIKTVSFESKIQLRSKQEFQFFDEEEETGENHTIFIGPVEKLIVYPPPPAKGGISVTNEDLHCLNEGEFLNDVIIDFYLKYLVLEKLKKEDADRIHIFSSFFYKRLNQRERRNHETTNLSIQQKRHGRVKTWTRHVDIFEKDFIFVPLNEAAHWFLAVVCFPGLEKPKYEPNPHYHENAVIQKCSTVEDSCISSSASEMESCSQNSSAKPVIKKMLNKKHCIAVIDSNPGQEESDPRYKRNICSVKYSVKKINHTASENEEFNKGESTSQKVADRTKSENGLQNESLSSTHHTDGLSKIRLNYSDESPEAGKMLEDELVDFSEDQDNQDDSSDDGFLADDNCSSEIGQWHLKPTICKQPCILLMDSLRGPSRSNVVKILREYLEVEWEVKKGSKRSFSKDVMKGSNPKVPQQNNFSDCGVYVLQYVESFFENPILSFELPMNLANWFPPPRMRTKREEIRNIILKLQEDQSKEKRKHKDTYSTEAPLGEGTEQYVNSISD

Caspase-3 = molecular target: T3, Caspase-3 (Homo sapiens, UniProt P42574); format: functional;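 further: Dose-response selectivity test against caspase-3 for candidate inhibitors of sentrin-specific proteases (SENPs)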
T3 sequence (P42574 whole entry): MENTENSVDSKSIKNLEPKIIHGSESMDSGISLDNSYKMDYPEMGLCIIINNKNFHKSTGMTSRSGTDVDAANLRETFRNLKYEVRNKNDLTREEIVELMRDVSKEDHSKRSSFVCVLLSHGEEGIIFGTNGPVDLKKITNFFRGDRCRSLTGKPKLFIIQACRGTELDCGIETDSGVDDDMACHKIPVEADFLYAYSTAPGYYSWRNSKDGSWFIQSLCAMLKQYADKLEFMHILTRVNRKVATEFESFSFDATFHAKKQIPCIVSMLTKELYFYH

[3] = molecular target: T4, Sentrin-specific protease 8 (Homo sapiens, UniProt Q96LD8); format: functional;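 further: luminescence read-out of SENP8 inhibition, dose-response confirmation following an ultra-high-throughput screen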
T4 sequence (Q96LD8 whole entry): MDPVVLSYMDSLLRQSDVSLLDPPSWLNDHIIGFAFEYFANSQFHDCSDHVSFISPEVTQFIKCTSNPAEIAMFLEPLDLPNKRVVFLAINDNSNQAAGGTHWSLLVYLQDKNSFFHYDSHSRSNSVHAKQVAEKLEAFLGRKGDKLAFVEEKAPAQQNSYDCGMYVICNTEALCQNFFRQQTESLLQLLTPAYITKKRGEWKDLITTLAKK

[4] = molecular target: SWI/SNF-related matrix-associated actin-dependent regulator of chromatin subfamily A member 2 (Homo sapiens, UniProt P51531); assay: Luminescence-based cell-based high throughput dose response assay to identify activators of the function of SWI/SNF related, matrix associated, actin dependent regulator of chromatin, subfamily a, member 2 (SMARCA2, BRM).; format: functional
[5] = Counterscreen for activators of the function of SWI/SNF related, matrix associated, actin dependent regulator of chromatin, subfamily a, member 2 (SMARCA2, BRM): Luminescence-based cell-based high throughput dose response assay to identify non-selective compounds using the VP16 reporter assay.; format: functional
[6] = tested on: Streptococcus sp. 'group A'; assay: Streptococcus pyogenes SK(-)GAS viability under kanamycin – luminescence, BacTiterGlo, confirmation, counter-screen for streptokinase expression inhibitor project, dose response (AID 1900); format: functional, organism-based
Streptokinase A = molecular target: T5, Streptokinase A (Streptococcus pyogenes serotype M1, UniProt P10520); assay: viability-normalized secreted streptokinase activity reduction – plasminogen activation absorbance, OD405, dose response (AID 1914); format: functional, Streptococcus pyogenes M1 GAS;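 further: secreted streptokinase activity via plasminogen activation per viability signal from cell pellet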
T5 sequence (P10520 whole entry): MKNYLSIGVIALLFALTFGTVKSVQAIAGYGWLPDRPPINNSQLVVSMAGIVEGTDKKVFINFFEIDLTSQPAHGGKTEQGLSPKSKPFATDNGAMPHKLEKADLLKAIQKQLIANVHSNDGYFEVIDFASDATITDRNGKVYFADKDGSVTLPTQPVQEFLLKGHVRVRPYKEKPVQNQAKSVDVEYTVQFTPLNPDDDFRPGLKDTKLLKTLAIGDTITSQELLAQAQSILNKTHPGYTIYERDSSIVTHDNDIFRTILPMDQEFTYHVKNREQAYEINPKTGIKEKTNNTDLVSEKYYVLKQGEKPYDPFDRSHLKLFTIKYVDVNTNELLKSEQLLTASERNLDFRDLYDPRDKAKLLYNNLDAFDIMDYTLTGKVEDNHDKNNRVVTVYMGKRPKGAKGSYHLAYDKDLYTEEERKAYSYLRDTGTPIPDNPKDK

Streptococcus = assay: GAS UMAA2166 growth inhibition – luminescence, BacTiterGlo, counter-screen for streptokinase expression inhibitor project, dose response (AID 1915); format: functional, organism-based;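 further: potency for reduction of bacterial viability or growth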
[7] = molecular target: T6, DNA repair and recombination protein RAD54-like (Homo sapiens, UniProt Q92698); assay: RAD54 Holliday junction migration blockers – biochemical, fluorescence, cherry-picked samples, dose series, confirmation (AID 651657); format: functional
T6 sequence (Q92698 whole entry): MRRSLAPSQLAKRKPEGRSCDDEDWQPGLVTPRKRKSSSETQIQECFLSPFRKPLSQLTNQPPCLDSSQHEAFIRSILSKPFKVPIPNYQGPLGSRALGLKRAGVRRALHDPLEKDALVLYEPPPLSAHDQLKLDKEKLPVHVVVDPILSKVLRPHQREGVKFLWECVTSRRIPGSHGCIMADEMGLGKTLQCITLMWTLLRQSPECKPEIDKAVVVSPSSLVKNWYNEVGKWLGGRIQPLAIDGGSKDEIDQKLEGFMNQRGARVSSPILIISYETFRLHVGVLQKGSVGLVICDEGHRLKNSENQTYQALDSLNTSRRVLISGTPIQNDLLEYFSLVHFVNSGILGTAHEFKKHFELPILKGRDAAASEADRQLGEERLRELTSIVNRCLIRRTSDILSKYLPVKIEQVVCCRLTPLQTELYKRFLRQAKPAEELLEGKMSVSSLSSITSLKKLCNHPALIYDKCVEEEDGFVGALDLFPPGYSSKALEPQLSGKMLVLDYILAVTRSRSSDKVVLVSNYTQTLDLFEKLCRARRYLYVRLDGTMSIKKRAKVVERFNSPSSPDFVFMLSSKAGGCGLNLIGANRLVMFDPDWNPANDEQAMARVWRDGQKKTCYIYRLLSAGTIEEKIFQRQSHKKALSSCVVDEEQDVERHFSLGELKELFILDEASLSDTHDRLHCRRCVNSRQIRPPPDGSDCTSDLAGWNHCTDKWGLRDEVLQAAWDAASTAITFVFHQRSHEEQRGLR

SN12K1 = assay: cells; format: functional; settings: Homo sapiens
P388 = assay: cells; format: functional; settings: Mus musculus
P388/ADR = assay: cells; format: functional; settings: Mus musculus
[8] = blockers of HIV-1 ZM109 envelope-driven cell-cell fusion – HeLa effector, CEM target cells, luciferase, cherry-pick, dose response (AID 652058); format: functional, cell-based;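 further: luciferase signal from HIV-1 Env mediated cell-cell fusion of effector and target cells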
[9] = IGROV1 cell killing – plate reader, dry powder samples, PAX8 inhibitor project, dose response (AID 743043); format: functional, cell-based; settings: IGROV-1
[10] = general cell-killing toxicity readout – plate reader, dry powder samples, cytotoxicity control for PAX8 inhibitor project, dose response (AID 743021); format: functional, cell-based
[11] = OVCAR8 cell viability loss – plate reader, dry powder samples, PAX8 project, dose response (AID 743197); format: functional, cell-based; settings: OVCAR-8
[12] = OVCAR-3 cell viability loss – plate reader, dry powder samples, PAX8 inhibitor project, dose response (AID 743044); format: functional, cell-based
Paired box protein Pax-8 = Paired box protein Pax-8 (Homo sapiens, UniProt Q06710); assay: PAX8 transcriptional activity inhibition in RMG-I – RMG-I cells, luciferase, cherry-pick, dose response (AID 687027); format: functional, cell-based;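 further: luciferase reporter driven by Pax8 target thyroperoxidase promoter measured by SteadyGlo luminescence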
Chain of Paired box protein Pax-8 (Q06710 whole entry): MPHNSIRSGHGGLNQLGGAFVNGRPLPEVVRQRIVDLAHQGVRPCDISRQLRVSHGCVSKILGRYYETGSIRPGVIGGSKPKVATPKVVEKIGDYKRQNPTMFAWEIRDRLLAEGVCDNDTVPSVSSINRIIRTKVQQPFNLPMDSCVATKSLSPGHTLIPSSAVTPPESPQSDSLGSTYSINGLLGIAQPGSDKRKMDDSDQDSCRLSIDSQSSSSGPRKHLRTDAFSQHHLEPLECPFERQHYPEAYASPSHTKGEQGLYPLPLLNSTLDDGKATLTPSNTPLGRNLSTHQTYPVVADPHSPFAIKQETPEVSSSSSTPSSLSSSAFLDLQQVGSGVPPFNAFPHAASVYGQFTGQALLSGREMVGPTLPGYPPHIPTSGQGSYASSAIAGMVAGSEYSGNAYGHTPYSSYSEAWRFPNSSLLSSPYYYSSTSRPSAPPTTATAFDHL

Chain of SWI/SNF-related matrix-associated actin-dependent regulator of chromatin subfamily A member 2 (P51531 whole entry): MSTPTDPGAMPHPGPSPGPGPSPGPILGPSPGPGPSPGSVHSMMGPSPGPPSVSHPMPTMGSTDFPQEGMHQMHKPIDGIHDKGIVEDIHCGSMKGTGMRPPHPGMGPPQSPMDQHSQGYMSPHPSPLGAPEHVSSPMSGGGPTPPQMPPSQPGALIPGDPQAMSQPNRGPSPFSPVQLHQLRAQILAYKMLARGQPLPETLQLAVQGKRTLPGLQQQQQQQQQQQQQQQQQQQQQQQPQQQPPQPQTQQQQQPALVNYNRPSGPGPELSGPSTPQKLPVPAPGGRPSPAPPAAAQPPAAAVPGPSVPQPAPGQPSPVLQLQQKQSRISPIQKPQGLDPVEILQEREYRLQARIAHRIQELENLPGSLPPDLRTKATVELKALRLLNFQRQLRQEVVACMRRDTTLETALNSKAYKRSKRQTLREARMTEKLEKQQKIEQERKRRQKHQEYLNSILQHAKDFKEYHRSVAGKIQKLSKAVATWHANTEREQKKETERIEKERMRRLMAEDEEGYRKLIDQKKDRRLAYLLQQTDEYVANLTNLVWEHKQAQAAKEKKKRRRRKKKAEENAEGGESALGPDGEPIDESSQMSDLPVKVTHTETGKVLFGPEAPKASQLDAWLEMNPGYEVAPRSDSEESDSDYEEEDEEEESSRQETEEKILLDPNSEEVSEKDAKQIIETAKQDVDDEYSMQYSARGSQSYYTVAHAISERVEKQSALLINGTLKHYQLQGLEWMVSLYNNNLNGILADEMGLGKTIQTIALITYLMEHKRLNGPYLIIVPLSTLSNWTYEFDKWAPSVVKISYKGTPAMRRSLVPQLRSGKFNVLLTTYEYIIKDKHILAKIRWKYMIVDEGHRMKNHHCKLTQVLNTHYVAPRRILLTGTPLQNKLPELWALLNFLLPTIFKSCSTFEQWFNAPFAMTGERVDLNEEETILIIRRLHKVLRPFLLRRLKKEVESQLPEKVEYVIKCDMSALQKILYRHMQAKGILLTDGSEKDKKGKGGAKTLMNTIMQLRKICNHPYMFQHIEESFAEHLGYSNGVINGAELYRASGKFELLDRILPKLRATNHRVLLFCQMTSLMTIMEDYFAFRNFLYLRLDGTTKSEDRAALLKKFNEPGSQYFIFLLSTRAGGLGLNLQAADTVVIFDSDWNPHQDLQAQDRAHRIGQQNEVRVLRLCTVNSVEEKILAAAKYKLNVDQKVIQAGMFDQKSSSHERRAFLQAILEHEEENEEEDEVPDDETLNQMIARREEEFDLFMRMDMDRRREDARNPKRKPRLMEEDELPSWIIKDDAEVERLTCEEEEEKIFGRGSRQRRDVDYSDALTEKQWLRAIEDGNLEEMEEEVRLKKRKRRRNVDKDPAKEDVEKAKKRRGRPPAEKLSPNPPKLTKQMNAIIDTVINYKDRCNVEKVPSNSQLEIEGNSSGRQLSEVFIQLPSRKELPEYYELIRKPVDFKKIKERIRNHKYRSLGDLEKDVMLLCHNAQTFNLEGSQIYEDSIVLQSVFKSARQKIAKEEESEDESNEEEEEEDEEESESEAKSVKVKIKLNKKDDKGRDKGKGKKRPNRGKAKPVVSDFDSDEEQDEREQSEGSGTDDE

Cc1c(/C=C/C(=O)c2ccccc2O)cnn1C
IC50 [1]: 4.84 µM (active)
IC50 [2]: 14.2 µM (active)
IC50 (Caspase-3): 15.3 µM (active)
IC50 [3]: 25.2 µM (active)

Cc1c(NC(=O)c2ccccc2N)cccc1C(=O)O
IC50 [1]: 2.73 µM (active)
IC50 [2]: 9.43 µM (active)
IC50 (Caspase-3): 38.1 µM (active)
IC50 [3]: 11.4 µM (active)

Cc1n[nH]c(SCC(=O)N2CCc3ccccc32)n1
EC50 [4]: > 91 µM (inactive)
EC50 [5]: > 91 µM (inactive)

Cc1cccc(Nc2nc(-c3ccc(F)c(C)c3)cs2)n1
IC50 [1]: 5.75 µM (active)
IC50 [2]: 24 µM (active)
IC50 (Caspase-3): 41.4 µM (active)
EC50 [6]: 8.77 µM (active)
IC50 [3]: 41.5 µM (active)
EC50 (Streptokinase A): > 50 µM (not active)
EC50 (Streptococcus): 26.7 µM (active)

O=C(c1cccs1)c1coc2ccc(O)cc12
IC50 [1]: 7.28 µM (active)
IC50 [2]: 10.6 µM (active)
IC50 (Caspase-3): 13.7 µM (active)
IC50 [3]: > 100 µM (inactive)

CCOC(=O)c1cnc2ccc(C)cc2c1NCCN1CCOCC1
AC50 [7]: 98.8 µM (active)

OC(CBr)C(O)C(O)C(O)CBr (centres undefined)
GI50 (SN12K1): > 100 µM (inactive)
GI50 (P388): 3.53 µM (inactive)
GI50 (P388/ADR): 5890 nM (inactive)

CCCCS(=O)(=O)Nc1ccc(Nc2c3ccccc3nc3ccccc23)c(OC)c1
GI50 (SN12K1): 1.26 µM (inactive)
GI50 (P388): < 0.01 µM (active)
GI50 (P388/ADR): 255 nM (active)

O=C(Nc1ccc(F)cc1)Nc1ccc2c(c1)[C@@H]1C[C@H](CC(=O)N3CCCCC3)O[C@@H](CO)[C@@H]1O2
AC50 [8]: 35 µM (active)

Cc1ccc(S(=O)(=O)Nc2ccc3c(c2)C(=O)N([C@@H](C)CO)C[C@@H](C)[C@H](CN(C)Cc2ccc(C(F)(F)F)cc2)OCCCC[C@@H](C)O3)cc1
AC50 [9]: 36.9 µM (active)
AC50 [10]: 43 µM (active)
AC50 [11]: > 70 µM (inactive)
AC50 [12]: 17.9 µM (active)
AC50 (Paired box protein Pax-8): 8.98 µM (active)

CC[C@@]1(O)CC(OC2CC(N3CCOCC3)C(O)C(C)O2)c2c(O)c3c(c(O)c2[C@H]1O)C(=O)c1cccc(O)c1C3=O (some centres undefined)
GI50 (P388): 0.00366 µM (active)
GI50 (P388/ADR): 0.00975 nM (active)

Nc1nc(O)c2ncn(C3OC(CO)C(O)C3O)c2n1 (centres undefined)
GI50 (SN12K1): 63.2 µM (inactive)
GI50 (P388): 9.73 µM (inactive)
GI50 (P388/ADR): 2330 nM (inactive)

Clc1ccc(CO/N=C2\CCCc3nonc32)cc1
EC50 [4]: > 91.2 µM (inactive)
EC50 [5]: > 91.2 µM (inactive)

Cc1cc(O)c2c(c1)C(=O)c1c(c(O)cc(O)c1-c1c(O)cc(O)c3c1C(=O)c1cc(C)cc(O)c1C3=O)C2=O [SKYRIN]
GI50 (SN12K1): 9.23 µM (inactive)
GI50 (P388): 8.95 µM (inactive)
GI50 (P388/ADR): 17900 nM (inactive)
